Data published in ChEMBL document CHEMBL1152291, “Structure-based design, synthesis, evaluation, and crystallographic studies of conformationally constrained Smac mimetics as inhibitors of the X-linked inhibitor of apoptosis protein (XIAP)” (J Med Chem, 2008).
Each block holds one compound with its values, some of them ahead of it.

Key:
[1] = target: E3 ubiquitin-protein ligase XIAP (Homo sapiens, UniProt P98170)
Description: Binding affinity to N-terminal 6xHis-tagged human cloned XIAP BIR3 domain expressed in Escherichia coli BL21 (DE3) by fluorescence polarization-based competitive binding assay

SK-OV-3 = test: Growth inhibition of human SKOV3 cells after 4 days by WST8 assay; type: functional, cell-based; conditions: SK-OV-3, 96 h
MDA-MB-231 [2] = test: Induction of apoptosis in human MDA-MB-231 cells assessed as late apoptotic cells at 100 nM after 48 hrs using annexin V-propidium iodide staining by flow cytometry; type: functional
MDA-MB-231 [3] = test: Induction of apoptosis in human MDA-MB-231 cells assessed as late apoptotic cells at 30 nM after 48 hrs using annexin V-propidium iodide staining by flow cytometry; type: functional
MDA-MB-231 [4] = test: Induction of apoptosis in human MDA-MB-231 cells assessed as early apoptotic cells at 1 uM after 48 hrs using annexin V-propidium iodide staining by flow cytometry; type: functional
MDA-MB-231 [5] = test: Induction of apoptosis in human MDA-MB-231 cells assessed as late apoptotic cells at 1 uM after 48 hrs using annexin V-propidium iodide staining by flow cytometry; type: functional
MDA-MB-231 [6] = test: Induction of apoptosis in human MDA-MB-231 cells assessed as early apoptotic cells at 30 nM after 48 hrs using annexin V-propidium iodide staining by flow cytometry; type: functional
MDA-MB-231 [7] = test: Induction of apoptosis in human MDA-MB-231 cells assessed as early apoptotic cells at 100 nM after 48 hrs using annexin V-propidium iodide staining by flow cytometry; type: functional
MDA-MB-231 [8] = test: cells; conditions: Homo sapiens, MDA-MB-231, 96 h
Description: Growth inhibition of human MDA-MB-231 cells after 4 days by WST-8 assay

Sequence of E3 ubiquitin-protein ligase XIAP (P98170 whole entry): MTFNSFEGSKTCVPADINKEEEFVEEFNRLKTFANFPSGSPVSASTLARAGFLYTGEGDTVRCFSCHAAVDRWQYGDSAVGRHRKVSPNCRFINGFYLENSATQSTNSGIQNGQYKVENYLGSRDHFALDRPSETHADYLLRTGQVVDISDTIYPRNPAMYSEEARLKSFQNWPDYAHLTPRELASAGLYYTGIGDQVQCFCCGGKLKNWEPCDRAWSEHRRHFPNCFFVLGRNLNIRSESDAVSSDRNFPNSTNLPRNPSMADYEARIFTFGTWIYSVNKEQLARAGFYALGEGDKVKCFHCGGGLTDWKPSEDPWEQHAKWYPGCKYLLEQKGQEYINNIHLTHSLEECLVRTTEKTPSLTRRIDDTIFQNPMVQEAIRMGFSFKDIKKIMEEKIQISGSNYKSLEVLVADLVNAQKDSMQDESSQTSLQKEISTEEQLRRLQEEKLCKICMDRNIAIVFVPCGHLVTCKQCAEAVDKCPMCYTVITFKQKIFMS

SMILES: CCC[C@H](N)C(=O)N[C@H]1CC[C@H]2CC[C@@H](C(=O)NCc3ccccc3)N2C1
Ki [1]: > 100000 nM

SMILES: CC[C@@H](C(=O)N[C@H]1CCCC[C@H]2CC[C@@H](C(=O)NC(c3ccccc3)c3ccccc3)N2C1=O)N1CCOCC1
Ki [1]: 32900 nM

SMILES: CN[C@@H](C)C(=O)N[C@H]1CCCC[C@H]2CC[C@@H](C(=O)NC(c3ccccc3)c3ccccc3)N2C1=O
IC50 (SK-OV-3): 900 nM
Activity (MDA-MB-231 [2]): 10%
Activity (MDA-MB-231 [3]): 2%
Activity (MDA-MB-231 [4]): 39%
Activity (MDA-MB-231 [5]): 8%
Activity (MDA-MB-231 [6]): 13%
Activity (MDA-MB-231 [7]): 29%

SMILES: C[C@H](O)C(=O)N[C@H]1CCCC[C@H]2CC[C@@H](C(=O)NC(c3ccccc3)c3ccccc3)N2C1=O
IC50 (SK-OV-3): > 10000 nM
IC50 (MDA-MB-231 [8]): 7000 nM
Ki [1]: 13000 nM

SMILES: CC[C@H](NC)C(=O)N[C@H]1CCCC[C@H]2CC[C@@H](C(=O)NC(c3ccccc3)c3ccccc3)N2C1=O
IC50 (SK-OV-3): 1000 nM
Activity (MDA-MB-231 [2]): 3%
Activity (MDA-MB-231 [3]): 3%
Activity (MDA-MB-231 [4]): 29%
IC50 (MDA-MB-231 [8]): 410 nM
Activity (MDA-MB-231 [5]): 8%
Activity (MDA-MB-231 [6]): 13%
Activity (MDA-MB-231 [7]): 20%

SMILES: CC[C@H](O)C(=O)N[C@H]1CCC[C@H]2CC[C@@H](C(=O)NC(c3ccccc3)c3ccccc3)N2C1=O
Ki [1]: 29000 nM

The remaining compounds from weak to strong by Ki [1], led by results:

Ki [1]: 759 nM
SMILES: CC[C@H](N)C(=O)N[C@H]1CCCC[C@H]2CC[C@@H](C(=O)N[C@H](c3ccccc3)c3ccc4ccccc4c3)N2C1=O

Ki [1]: 100 nM
SMILES: C[C@H](N)C(=O)N[C@H]1CCCC[C@H]2CC[C@@H](C(=O)NCc3ccccc3)N2C1=O

Ki [1]: 60 nM
SMILES: C[C@H](N)C(=O)N[C@H]1CCC[C@H]2CC[C@@H](C(=O)NC(c3ccccc3)c3ccccc3)N2C1=O

Ki [1]: 47 nM
SMILES: CC[C@H](N)C(=O)N[C@H]1CCCC[C@H]2CC[C@@H](C(=O)N[C@@H](c3ccccc3)c3ccc4ccccc4c3)N2C1=O

IC50 (SK-OV-3): > 10000 nM
IC50 (MDA-MB-231 [8]): 8000 nM
Ki [1]: 39 nM
SMILES: CC[C@H](N)C(=O)N[C@H]1CCCC[C@H]2CC[C@@H](C(=O)NC(c3ccccc3)c3ccccc3)N2C1=O
